This experiment relates to P388 leukemia ip, CD2F1 mice, survival T/C. The experiment can be described thus: NCI In Vivo Anticancer Drug Screen. Data for tumor model P388 Leukemia (intraperitoneal) in CD2F1 (CDF1) mice. As to conditions: endpoint: median survival time, higher = longer survival. The essentials: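 Mice carrying the transplanted tumor received test compound or vehicle. Survival was recorded in each group, and the value is the treated-group measurement divided by that of the vehicle-treated control group.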

[1] abbreviates: dose: 50.0 mg/kg/injection, schedule: Q01DX009 (ip), vehicle: Klucel (hydroxypropylcellulose) (HPC).
[2] abbreviates: dose: 100.0 mg/kg/injection, schedule: Q01DX009 (ip), vehicle: Klucel (hydroxypropylcellulose) (HPC).
Where [3] appears, read: dose: 400.0 mg/kg/injection, schedule: Q01DX009 (ip), vehicle: Klucel (hydroxypropylcellulose) (HPC).
The mark [4] stands for this setting: dose: 50.0 mg/kg/injection, schedule: Q01DX005 (ip), vehicle: saline with Tween-80.
Where [5] appears, read: dose: 100.0 mg/kg/injection, schedule: Q01DX005 (ip), vehicle: saline with Tween-80.
The mark [6] stands for this setting: dose: 200.0 mg/kg/injection, schedule: Q01DX005 (ip), vehicle: saline with Tween-80.
Where [7] appears, read: dose: 50.0 mg/kg/injection, schedule: Q01DX009 (ip), vehicle: saline with Tween-80.
[8] abbreviates: dose: 100.0 mg/kg/injection, schedule: Q01DX009 (ip), vehicle: saline with Tween-80.
The mark [9] stands for this setting: dose: 200.0 mg/kg/injection, schedule: Q01DX009 (ip), vehicle: saline with Tween-80.
Setting [10] is: dose: 12.5 mg/kg/injection, schedule: Q01DX009 (ip), vehicle: saline with Tween-80.
Setting [11] is: dose: 25.0 mg/kg/injection, schedule: Q01DX009 (ip), vehicle: saline with Tween-80.
[12] abbreviates: dose: 50.0 mg/kg/injection, schedule: Q01DX005 (ip), vehicle: Klucel (hydroxypropylcellulose) (HPC).
Setting [13] is: dose: 100.0 mg/kg/injection, schedule: Q01DX005 (ip), vehicle: Klucel (hydroxypropylcellulose) (HPC).
[14] abbreviates: dose: 200.0 mg/kg/injection, schedule: Q01DX005 (ip), vehicle: Klucel (hydroxypropylcellulose) (HPC).

Several values for one entry are separate records, joined by “and”; a condition that tells them apart may be missing. Equal entries are not always repeated. Toxic doses and inconclusive results are not listed.

Turning to `O=C(O)c1cccc([N+](=O)[O-])c1O`, the T/C runs as follows: under setting [1], 102 % of control; under setting [2], 105 % of control; (dose: 200.0 mg/kg/injection, schedule: Q01DX009 (ip), vehicle: Klucel (hydroxypropylcellulose) (HPC)) 101 % of control; under setting [3], 100 % of control.

Turning to `C=CC(C)(C)c1c(OC)oc(-c2ccccc2)cc1=O`, the T/C (dose: 5.0 mg/kg/injection, schedule: Q01DX005 (ip), vehicle: saline + Tween-80 + alcohol) is 106 % of control; the T/C (dose: 10.0 mg/kg/injection, schedule: Q01DX005 (ip), vehicle: saline + Tween-80 + alcohol) was 111 % of control; the T/C (dose: 20.0 mg/kg/injection, schedule: Q01DX005 (ip), vehicle: saline + Tween-80 + alcohol) was 106 % of control; the T/C (dose: 40.0 mg/kg/injection, schedule: Q01DX005 (ip), vehicle: saline + Tween-80 + alcohol) is 110 % of control.

Turning to `O=C(O)CCC1(CCC(=O)O)OCCO1.[Ag]`, the T/C runs as follows: (dose: 9.5 mg/kg/injection, schedule: Q01DX009 (ip), vehicle: saline sonified) 100 % of control; (dose: 19.0 mg/kg/injection, schedule: Q01DX009 (ip), vehicle: saline sonified) 109 % of control; (dose: 38.0 mg/kg/injection, schedule: Q01DX009 (ip), vehicle: saline sonified) 86 % of control.

Consider `Cn1c(CCCCCCCCc2c(C(=O)/C=C/c3ccccc3)c(=O)n(C)c(=O)n2C)c(C(=O)/C=C\c2ccccc2)c(=O)n(C)c1=O`, for which the T/C was 88 % of control under setting [4], 90 % of control under setting [5] and 90 % of control under setting [6].

As to `ICC1Cc2ccccc2O1` (stereo not given), the T/C reads like this: under setting [7], 99 % of control; under setting [8], 101 % of control; under setting [9], 103 % of control.

For the molecule `O=S(=O)(/C=C/c1ccc(F)cc1)Cc1ccccc1`, the T/C reads like this: under setting [4], 92 % of control; under setting [5], 92 % of control; under setting [6], 90 % of control.

For the molecule `CCCCCCCCCCCCCCCC[N+]1(CCC(C)C)CCOCC1`, the T/C reads like this: (dose: 100.0 mg/kg/injection, schedule: Q04DX002 (ip), vehicle: Klucel (hydroxypropylcellulose) (HPC)) 100 % of control; (dose: 200.0 mg/kg/injection, schedule: Q04DX002 (ip), vehicle: Klucel (hydroxypropylcellulose) (HPC)) 94 % of control; (dose: 400.0 mg/kg/injection, schedule: Q04DX002 (ip), vehicle: Klucel (hydroxypropylcellulose) (HPC)) 104 % of control.

As for `CCOC1NC(=O)Oc2ccccc21` (stereo not given), the T/C runs as follows: (dose: 3.12 mg/kg/injection, schedule: Q01DX005 (ip), vehicle: Klucel (hydroxypropylcellulose) (HPC)) 100 % of control; (dose: 6.25 mg/kg/injection, schedule: Q01DX005 (ip), vehicle: Klucel (hydroxypropylcellulose) (HPC)) 96 % of control; (dose: 12.5 mg/kg/injection, schedule: Q01DX005 (ip), vehicle: Klucel (hydroxypropylcellulose) (HPC)) 103 % of control and 105 % of control; (dose: 12.5 mg/kg/injection, schedule: Q01DX009 (ip), vehicle: Klucel (hydroxypropylcellulose) (HPC)) 96 % of control; (dose: 25.0 mg/kg/injection, schedule: Q01DX009 (ip), vehicle: Klucel (hydroxypropylcellulose) (HPC)) 100 % of control and 105 % of control; under setting [1], 100 % of control and 103 % of control (2×). Also, the T/C was 94 % of control (dose: 72.0 mg/kg/injection, schedule: Q01DX005 (ip), vehicle: Klucel (hydroxypropylcellulose) (HPC)); 108 % of control and 109 % of control and 113 % of control under setting [2]; 102 % of control (dose: 120.0 mg/kg/injection, schedule: Q01DX005 (ip), vehicle: Klucel (hydroxypropylcellulose) (HPC)); 200 % of control under setting [3].

Regarding `CCCN(C)CC(C)(O)CNc1cc(OC)cc2cccnc12` (stereo not given), the T/C by setting is: (dose: 12.5 mg/kg/injection, schedule: Q01DX005 (ip), vehicle: saline) 100 % of control; (dose: 25.0 mg/kg/injection, schedule: Q01DX005 (ip), vehicle: saline) 95 % of control; under setting [4], 106 % of control; (dose: 50.0 mg/kg/injection, schedule: Q01DX005 (ip), vehicle: saline) 99 % of control.

Consider `Nc1nc(Cl)c(C=O)c(Cl)n1`, for which the T/C under setting [10] was 96 % of control; the T/C under setting [11] was 100 % of control and 119 % of control; the T/C under setting [7] is 100 % of control and 120 % of control; the T/C under setting [8] is 115 % of control.

Turning to `CCOc1ccc(NC(=O)OCCN2CCN(CCc3ccccc3)C(C)C2)cc1` (stereo not given), the T/C reads like this: under setting [10], 97 % of control; under setting [11], 94 % of control; under setting [7], 100 % of control.

As for `Fc1cccc(Cl)c1CSC(=S)N1CCSCC1`, the T/C by setting is: (dose: 60.0 mg/kg/injection, schedule: Q01DX005 (ip), vehicle: saline with Tween-80) 110 % of control; (dose: 120.0 mg/kg/injection, schedule: Q01DX005 (ip), vehicle: saline with Tween-80) 105 % of control; (dose: 240.0 mg/kg/injection, schedule: Q01DX005 (ip), vehicle: saline with Tween-80) 96 % of control.

Regarding `O=C(OCC(Cl)(Cl)Cl)N1[C@@H]2C=C[C@@H](N1C(=O)OCC(Cl)(Cl)Cl)[C@@]13CCCC21O3` (stereo not given in full), the T/C under setting [12] was 103 % of control, the T/C under setting [13] is 105 % of control and the T/C under setting [14] was 103 % of control.

As for `COc1ccc(CC(NC(=O)NSc2ccccc2)C(=O)NC2C(CO)OC(n3cnc4c(N(C)C)ncnc43)C2O)cc1` (stereo not given), the T/C (dose: 12.5 mg/kg/injection, schedule: Q01DX005 (ip), vehicle: saline with Tween-80) was 90 % of control; the T/C (dose: 25.0 mg/kg/injection, schedule: Q01DX005 (ip), vehicle: saline with Tween-80) was 93 % of control; the T/C under setting [4] is 88 % of control and 91 % of control.

Consider `CC(CNc1nc(Nc2ccc(Cl)c(Cl)c2)nc(C(Cl)(Cl)Cl)n1)N(C)C` (stereo not given), for which the T/C is 109 % of control (dose: 3.13 mg/kg/injection, schedule: Q01DX009 (ip), vehicle: distilled water + Tween-80); 90 % of control (dose: 3.13 mg/kg/injection, schedule: Q01DX009 (ip), vehicle: water); 118 % of control (dose: 6.25 mg/kg/injection, schedule: Q01DX009 (ip), vehicle: distilled water + Tween-80); 99 % of control (dose: 6.25 mg/kg/injection, schedule: Q01DX009 (ip), vehicle: water); 98 % of control and 120 % of control (dose: 12.5 mg/kg/injection, schedule: Q01DX009 (ip), vehicle: distilled water + Tween-80); 99 % of control (dose: 12.5 mg/kg/injection, schedule: Q01DX009 (ip), vehicle: water). In addition, the T/C was 113 % of control and 94 % of control (dose: 25.0 mg/kg/injection, schedule: Q01DX009 (ip), vehicle: distilled water + Tween-80); 101 % of control (dose: 25.0 mg/kg/injection, schedule: Q01DX009 (ip), vehicle: water); 109 % of control and 94 % of control (dose: 50.0 mg/kg/injection, schedule: Q01DX009 (ip), vehicle: distilled water + Tween-80); 101 % of control (dose: 50.0 mg/kg/injection, schedule: Q01DX009 (ip), vehicle: water).

Turning to `CCOC(=O)Nc1ccc2nc(Sc3ccc(C)cc3)sc2c1`, the T/C by setting is: under setting [7], 99 % of control; under setting [8], 110 % of control; under setting [9], 119 % of control.

For the molecule `CC(C)=CCC[C@](C)(O[C@@H]1O[C@H](CO)[C@@H](O)[C@H](O)[C@H]1O)[C@H]1CC[C@]2(C)[C@@H]1[C@H](O)C[C@@H]1[C@@]3(C)CC[C@H](O)C(C)(C)[C@@H]3[C@@H](O[C@@H]3O[C@H](CO)[C@@H](O)[C@H](O)[C@H]3O)C[C@]12C`, the T/C was 105 % of control (dose: 50.0 mg/kg/injection, schedule: Q01DX009 (ip), vehicle: saline); 106 % of control (dose: 100.0 mg/kg/injection, schedule: Q01DX009 (ip), vehicle: saline); 106 % of control (dose: 200.0 mg/kg/injection, schedule: Q01DX009 (ip), vehicle: saline).

`OCC(O)c1c(-c2ccccc2)c(-c2ccccc2)c2n1CCC2` (stereo not given): the T/C is 96 % of control under setting [12], 93 % of control under setting [13] and 92 % of control under setting [14].

As to `CN(C(=O)C1CC1)c1ccccc1`, the T/C is, setting by setting: under setting [7], 105 % of control; under setting [8], 107 % of control.

For the molecule `O=Cc1ccc2nc(C(Cl)(Cl)Cl)ccc2c1`, the T/C under setting [7] is 100 % of control, the T/C under setting [8] was 105 % of control and the T/C under setting [9] is 100 % of control.

For `O=[N+]([O-])c1ccc(SSc2ccc([N+](=O)[O-])cn2)nc1`, the T/C under setting [11] is 104 % of control, the T/C under setting [7] was 86 % of control and the T/C under setting [8] was 95 % of control.

Values taken from PubChem BioAssay AID330 (DTP/NCI, 2004).
